Reference: patent US5571799A, “(2'-5') oligoadenylate analogues useful as inhibitors of host-v5.-graft response” (Basco, Ltd., priority 1994, dated 1996)
Entries after “also recorded” stand apart in the source; their conditions may differ. Marks after values point to notes of the source that are not given here.

Assays:
IgG, IgA, IgM = assay: Immune system of monkeys: serum immunoglobulins by radial immunodiffusion; assay type: in vivo, Macaque Rh. monkeys
Experimental: Immunosuppressive activity of the prototype 2'-5'A3 and two analogues (2'-5')A2 Ar-epoxy and (2'-5')A2 A^l-epoxy were investigated in monkeys. The experiments were performed on 4 year-old Macaque Rh. monkeys. The levels of the principal subpopulations of T-lymphocytes, IgA, IgG, IgM and the amount of α- and γ-interferon and interleukin II after administration (2'-5')olygoadenylate and its analogies at the concentration of 50 and 25 μg/kg of the body weight was investigated.
IMMUNOGLOBULIN DETERMINATION
Serum levels of IgG, IgA, IgM were determined by radial immunodiffusion using antisera against human immunoglobulin A, M, G. The amount of interferon and interleukine-II were determined by the method of Lopez-Botet M. et al., 1982.

T-suppressors = T-suppressors in monkeys after kidney transplantation; assay type: in vivo, Macaque Rh. monkeys; conditions: for T-suppress: 50 μg/kg IV, 2 days pre-op. 44
Experimental: FLOW CYTOFLUOROGRAFIC ANALYSIS OF LYMPHOCYTE SUBSETS
Blood samples (100 μl of whole blood) were placed into a 12×17 tube. To these cells 20 μl of purified monoclonal antibodies were added with specificity for human cytotoxic/suppressor cells anti-Leu-2a (CD8), human helper/inducer anti-Leu-3a (CD4) and FITC conjugated monoclonal antibodies with specificity for natural killer cells-anti-Leu11c (CD16) (Becton Dickinson, San Jose). After 30 minutes incubation on ice, the cells were washed once and 20 μl of goat-antimouse chain phycoerythrin (Sigma P1286) conjugate were added to the tube with anti-Leu-2a and anti-Leu-3a monoclonal antibodies.
After erythrocyte lysing with FACS lysing solution (Becton Dickinson, San Jose) the cells were analyzed on FACScan flow cytometer (Becton Dickinson, San Jose) with scatter gate set on lymphocyte fraction.
The experiments were performed on 4 year-old Macaque Rh. monkeys. Each cohort consisted of 3 animals. […] The results of the experiments were evaluated clinically: by the presence or absence of urination from the ureterocutaneostoma.
After intravenous anesthesia with Ketalar®, an extraperitoneal access to the left kidney was performed through layer by layer cuts to the left lumbar region. The kidney was excised from the surrounding tissues. A clamp was applied to the vessel limb; the artery, the vein and the ureter each were prepared for anastomosis separately. The kidney was excised and transferred for hypothermal conservation in Collins' solution.
The donor kidney was transplanted into the recipient. […] anastomosis was performed: the graft arteries and veins attached to the appropriate recipient kidney vessels through plastic tubes. The kidney having been resuscitated by in blood flow, acquired the normal color and turgor. Additional hemostasis in the wound was performed. Ureterocutaneostomy was performed, which was followed by applying layer-upon-layer sutures on the wound and its aseptic dressing.
The monkeys were narcotized by means of the intravenous anesthesia with Ketalar® and subjected to medial laparotomy from the xiphoid down to the pubic joint. Access to the left Kidney was made extraperitoneally. The kidney was teased from the surrounding tissues. A clamp was put on the vessel limb; the artery, the vein and the ureter were dressed separately; the kidney was cut and transferred for hypothermal conservation in Collins' solution.
The internal iliac artery and the external iliac vein were extracted extra-peritoneally, immobilized and prepared for anastomosis. The donor kidney was transferred to the recipient. Vessel anastomosis was performed: the graft arteries were anastomosed with the internal iliac artery according to the end-to-end method and the graft veins were anastomosed with the external iliac vein according to the end-to-side method. The kidney having been engaged in blood flow, acquired a normal color and turgor. Bleeding on the line of the arterial anastomosis was stopped by making additional sutures. Ureterocutaneostomy was performed. The abdominal cavity was lavaged with the solution of disodium carbenicillin. Layer-upon-layer sutures on the wound were applied. Aseptic dressing was performed.
During our experiments we have divided monkeys into two groups, three monkeys to each group. For the first group (2'-5')A2 Ar-epoxy was administered intravenously at concentration of 50 μg/kg two days before the operation and at the second, sixth, and twelfth day after the operation and then every sixth day. […] After transplantation kidney functions were restored within 10 hours.
The administration schedule of (2'-5')A2 Ar-epoxy was modified slightly for the second group of monkeys. The preparation was injected two days before the operation and every other day at a concentration of 50 μg/kg during the entire post-transplantation period. […] The number of T-helpers dropped correspondingly from 37% to 7%. […] During the entire postoperative period, this activity tendency continues.

lymphocytes = assay: Lymphocyte blast-transformation reaction in operated rabbits; assay type: in vivo, chinchilla rabbits
Experimental: Immunosuppression was performed by IV injection of (2'-5')A2 Ar-epoxy at a dose of 5 μg per 1.0 kg body weight at 0.1 ml of the physiologic solution daily until the conclusion of the experiment. During the first two weeks of the post-operative period, blood was taken for immunological analysis; BTR with PHA and Concanavalin A were tested.
Lymphocyte Blast-Transformation Reaction in Operated Rabbits

[1] = single IV 25 μg/kg, day 0 (baseline)
[2] = single IV 50 μg/kg, day 0 (baseline)

In the case of “Adenylyl (2'-5')adenylyl (2'-5')-9-(2,3-anhydro-β-D-ribofuranosyl) adenine disodium salt [(2'-5')A2 Ar-epoxy]”, the IgA (IgG, IgA, IgM; [1]) is reported as 2.8 g/L, the IgG (IgG, IgA, IgM; [1]) is reported as 7.5 g/L and the IgM (IgG, IgA, IgM; [1]) is reported as 0.5 g/L. For the same substance, the IgA (IgG, IgA, IgM; single IV 25 μg/kg, day 1) was 2.0 g/L, the IgG (IgG, IgA, IgM; single IV 25 μg/kg, day 1) was 7.4 g/L and the IgM (IgG, IgA, IgM; single IV 25 μg/kg, day 1) was 0.6 g/L. The IgA (IgG, IgA, IgM; single IV 25 μg/kg, day 2) was 1.1 g/L, the IgG (IgG, IgA, IgM; single IV 25 μg/kg, day 2) was 5.2 g/L and the IgM (IgG, IgA, IgM; single IV 25 μg/kg, day 2) was 1.0 g/L. For the same substance, the IgA (IgG, IgA, IgM; single IV 25 μg/kg, day 8) was 0.53 g/L, the IgG (IgG, IgA, IgM; single IV 25 μg/kg, day 8) was 14.5 g/L and the IgM (IgG, IgA, IgM; single IV 25 μg/kg, day 8) was 1.41 g/L. It also gave an IgA (IgG, IgA, IgM; single IV 25 μg/kg, day 21) of 0.38 g/L, an IgG (IgG, IgA, IgM; single IV 25 μg/kg, day 21) of 14.48 g/L and an IgM (IgG, IgA, IgM; single IV 25 μg/kg, day 21) of 1.2 g/L. For the same substance, the IgA (IgG, IgA, IgM; [2]) was 2.8 g/L, the IgG (IgG, IgA, IgM; [2]) was 9.6 g/L and the IgM (IgG, IgA, IgM; [2]) was 0.6 g/L. The IgA (IgG, IgA, IgM; single IV 50 μg/kg, day 1) was 2.7 g/L, the IgG (IgG, IgA, IgM; single IV 50 μg/kg, day 1) was 7.8 g/L and the IgM (IgG, IgA, IgM; single IV 50 μg/kg, day 1) was 0.5 g/L. For the same substance, the IgA (IgG, IgA, IgM; single IV 50 μg/kg, day 2) was 0.8 g/L, the IgG (IgG, IgA, IgM; single IV 50 μg/kg, day 2) was 15.0 g/L and the IgM (IgG, IgA, IgM; single IV 50 μg/kg, day 2) was 1.1 g/L. It also gave an IgA (IgG, IgA, IgM; single IV 50 μg/kg, day 8) of 0.9 g/L, an IgG (IgG, IgA, IgM; single IV 50 μg/kg, day 8) of 14.8 g/L and an IgM (IgG, IgA, IgM; single IV 50 μg/kg, day 8) of 0.9 g/L. It also gave an IgA (IgG, IgA, IgM; single IV 50 μg/kg, day 21) of 0.38 g/L, an IgG (IgG, IgA, IgM; single IV 50 μg/kg, day 21) of 13.2 g/L and an IgM (IgG, IgA, IgM; single IV 50 μg/kg, day 21) of 0.78 g/L. For the same substance, the T-suppress (T-suppressors; day 1 post-op.) was 40.6%, the T-suppress (T-suppressors; day 5 post-op.) was 44% and the T-suppress (T-suppressors; day 8 post-op.) was 47%. For the same substance, the T-suppress (T-suppressors; day 13 post-op.) was 47.7%, the T-suppress (T-suppressors; day 18 post-op.) was 57.5% and the “effect on T-suppressors in transplanted animals, in words” value (T-suppressors; post-transplantation, 50 μg/kg, disodium salt) was “stimulates the number of T-suppressor cells in transplanted monkeys; also recorded: stimulates somewhat the number of T-suppressors”. The “quantity of T-suppressors” value (T-suppressors; second group, 50 μg/kg every other day, 7 days after surgery, presurgical 44%) was 49%, the “DNA synthesis by [^3 H]-thymidine incorporated” value (from here on “DNA synthesis”) (lymphocytes; Con A, Group 1, 2 weeks post-op., pre-op. 12.6) was 1.6 cpm(×10^3) and the “DNA synthesis” value (lymphocytes; Con A, Group 1, 48 h. post-op., pre-op. 12.6) was 1.6 cpm(×10^3). The “DNA synthesis” value (lymphocytes; Con A, Group 2, 2 weeks post-op., pre-op. 11.0) was 5.0 cpm(×10^3), the “DNA synthesis” value (lymphocytes; Con A, Group 2, 48 h. post-op., pre-op. 11.0) was 4.4 cpm(×10^3) and the “DNA synthesis” value (lymphocytes; PHA 10, Group 1, 2 weeks post-op., pre-op. 6.0) was 1.5 cpm(×10^3). The “DNA synthesis” value (lymphocytes; PHA 10, Group 1, 48 h. post-op., pre-op. 6.0) was 0.9 cpm(×10^3), the “DNA synthesis” value (lymphocytes; PHA 10, Group 2, 2 weeks post-op., pre-op. 7.0) was 2.1 cpm(×10^3) and the “DNA synthesis” value (lymphocytes; PHA 10, Group 2, 48 h. post-op., pre-op. 7.0) was 2.4 cpm(×10^3). For the same substance, the “DNA synthesis” value (lymphocytes; PHA 20, Group 1, 2 weeks post-op., pre-op. 2.1) was 1.6 cpm(×10^3), the “DNA synthesis” value (lymphocytes; PHA 20, Group 1, 48 h. post-op., pre-op. 2.1) was 1.2 cpm(×10^3) and the “DNA synthesis” value (lymphocytes; PHA 20, Group 2, 48 h. post-op., pre-op. 1.4) was 5.5 cpm(×10^3). The “DNA synthesis” value (lymphocytes; Spontaneous, Group 1, 48 h. post-op., pre-op. 0.648) was 0.306 cpm(×10^3), the “DNA synthesis” value (lymphocytes; Spontaneous, Group 2, 48 h. post-op., pre-op. 0.597) was 0.274 cpm(×10^3) and the “suppression of lymphocyte blast-transformation stimulated with Con A” value (lymphocytes; post-transplanted rabbits, IV 5 μg/kg) was roughly 10 fold. The “lymphocyte blast-transformation reaction, in words” value (lymphocytes; two weeks following the operation) was “inhibition of the lymphocyte blast-transformation reaction”.
